Test results as given in article PMC12268261, “The aldehyde (ALD) locus controls C6-aldehyde production in kiwifruit and affects consumer perception of fruit aroma” (Plant Physiology, 2025).
Read-outs that look alike come from different tables or passages of the source.

Experiments:
[1] = target: T1, AcLOX4a-D1 (Actinidia chinensis, UniProt A0A2R6P8A4); experiment: spectrophotometric, product formation at […] nm; format: biochemical; settings: air-saturated 30 mM Tris-Cl, pH 7.5, read-out: Km-app /
T1 construct: gene CEY00_Acc32486; N-terminal HIS6-MBP fusion (pMAL-c6T), tag kept; E. coli BL21 (DE3) Codon Plus RIL
T1 sequence (A0A2R6P8A4 entry or part of it): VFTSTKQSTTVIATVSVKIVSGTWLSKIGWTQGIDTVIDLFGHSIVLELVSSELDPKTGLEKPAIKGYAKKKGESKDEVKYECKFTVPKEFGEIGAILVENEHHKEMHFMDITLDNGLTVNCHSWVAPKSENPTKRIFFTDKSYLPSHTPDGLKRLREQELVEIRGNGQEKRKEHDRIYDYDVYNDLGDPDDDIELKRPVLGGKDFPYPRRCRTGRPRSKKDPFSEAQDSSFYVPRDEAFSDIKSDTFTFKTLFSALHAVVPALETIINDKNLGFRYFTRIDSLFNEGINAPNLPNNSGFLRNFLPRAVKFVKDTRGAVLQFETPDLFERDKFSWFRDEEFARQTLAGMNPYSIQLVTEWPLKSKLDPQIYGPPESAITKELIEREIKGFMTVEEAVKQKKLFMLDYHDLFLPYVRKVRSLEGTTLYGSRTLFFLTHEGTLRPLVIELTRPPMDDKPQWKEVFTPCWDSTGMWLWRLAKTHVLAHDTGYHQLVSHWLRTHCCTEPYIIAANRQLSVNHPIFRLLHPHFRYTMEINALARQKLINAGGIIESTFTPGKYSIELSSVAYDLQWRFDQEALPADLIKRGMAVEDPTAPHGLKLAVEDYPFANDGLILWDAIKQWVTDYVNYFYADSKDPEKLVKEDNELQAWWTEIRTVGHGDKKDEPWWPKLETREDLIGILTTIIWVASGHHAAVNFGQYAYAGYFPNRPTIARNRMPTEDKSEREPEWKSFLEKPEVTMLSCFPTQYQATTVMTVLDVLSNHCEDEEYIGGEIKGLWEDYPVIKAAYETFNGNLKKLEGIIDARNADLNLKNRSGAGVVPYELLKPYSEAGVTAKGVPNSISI

[2] = target: T2, AcLOX4c-D1 (Actinidia chinensis, UniProt Z9ABF8LHO4); experiment: spectrophotometric, product formation at […] nm; format: biochemical; settings: air-saturated 30 mM Tris-Cl, pH 7.5; substrate inhibition at >50 µM; read-out: Km-app /
T2 construct: N-terminal HIS6-MBP fusion (pMAL-c6T), tag kept; E. coli BL21 (DE3) Codon Plus RIL
T2 sequence (Z9ABF8LHO4 57-898): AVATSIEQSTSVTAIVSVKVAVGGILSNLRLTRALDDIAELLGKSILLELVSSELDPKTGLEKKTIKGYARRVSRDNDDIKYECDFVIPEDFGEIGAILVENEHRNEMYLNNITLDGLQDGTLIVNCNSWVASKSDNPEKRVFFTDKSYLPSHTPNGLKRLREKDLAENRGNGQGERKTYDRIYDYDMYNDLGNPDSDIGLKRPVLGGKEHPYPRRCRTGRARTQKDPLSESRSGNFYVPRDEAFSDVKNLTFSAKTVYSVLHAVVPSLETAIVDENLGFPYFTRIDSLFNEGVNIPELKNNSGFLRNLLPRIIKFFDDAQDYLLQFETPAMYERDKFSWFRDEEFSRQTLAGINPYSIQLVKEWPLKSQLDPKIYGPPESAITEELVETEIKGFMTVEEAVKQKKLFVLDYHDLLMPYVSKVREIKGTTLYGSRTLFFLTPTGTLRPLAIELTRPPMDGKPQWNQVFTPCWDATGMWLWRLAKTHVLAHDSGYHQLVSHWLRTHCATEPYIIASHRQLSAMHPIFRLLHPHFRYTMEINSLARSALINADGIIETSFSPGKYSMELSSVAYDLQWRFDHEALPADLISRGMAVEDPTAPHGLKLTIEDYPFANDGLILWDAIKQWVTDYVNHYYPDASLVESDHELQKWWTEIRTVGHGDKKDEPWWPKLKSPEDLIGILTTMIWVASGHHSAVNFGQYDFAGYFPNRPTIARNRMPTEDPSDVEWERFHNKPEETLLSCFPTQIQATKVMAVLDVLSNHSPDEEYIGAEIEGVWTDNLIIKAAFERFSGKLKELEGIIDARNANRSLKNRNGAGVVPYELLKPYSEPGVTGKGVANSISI

Row | Compound | Km ([1]; substrate inhibition at >125 µM) | Km [2] | Km [1]
1 | CCCCC/C=C\C/C=C\CCCCCCCC(=O)O [linoleic acid] | 193 µM | 59.2 µM | 
2 | CC/C=C\C/C=C\C/C=C\CCCCCCCC(=O)O [α-linolenic acid] |  |  | 133 µM
